“Also recorded” adds a separate entry of the source.
System: elastase
Test: Degradation of rabbit lung Annexin I to 33 kDa(BP) by elastase, with and without PMSF
Format: biochemical
Conditions: PMSF present in the reaction solution; concentration not given; substrate rabbit lung Annexin I

In the case of O=S(=O)(F)Cc1ccccc1 [PMSF, phenylmethyl sulfonyl fluoride], the “inhibition of the proteolytic hydrolysis of Annexin I catalyzed by elastase” value is reported as “totally inhibited; also recorded: prevented Annexin I degradation”.

— patent publication US6180596A, “Methods of inhibiting phospholipase A2 and phospholipase A2 stimulator activities” (Wisconsin Alumni Research Foundation, priority 1998, dated 2001)
